From ChEMBL document CHEMBL1125876, “Conformationally defined neurotransmitter analogues. Selective inhibition of glutamate uptake by one pyrrolidine-2,4-dicarboxylate diastereomer” (1991)

Tests used:
Parameters in all cases: scale not given: the % may be the effect or the level left
[1] = species on record: Rattus norvegicus; assay: Comparative inhibition of L-Glutamate uptake at the concentration of 5 uM of [3H]-L- glutamate radioligand; format: functional
[2] = molecular target: Glutamate receptor ionotropic, kainate 2 (Rattus norvegicus) (UniProt P42260); assay: Compound tested for its ability to inhibit [3H]- KA binding to ionotropic glutamate receptor kainate at the concentration of 100 uM
Chain of Glutamate receptor ionotropic, kainate 2 (Rattus norvegicus) (P42260 whole entry): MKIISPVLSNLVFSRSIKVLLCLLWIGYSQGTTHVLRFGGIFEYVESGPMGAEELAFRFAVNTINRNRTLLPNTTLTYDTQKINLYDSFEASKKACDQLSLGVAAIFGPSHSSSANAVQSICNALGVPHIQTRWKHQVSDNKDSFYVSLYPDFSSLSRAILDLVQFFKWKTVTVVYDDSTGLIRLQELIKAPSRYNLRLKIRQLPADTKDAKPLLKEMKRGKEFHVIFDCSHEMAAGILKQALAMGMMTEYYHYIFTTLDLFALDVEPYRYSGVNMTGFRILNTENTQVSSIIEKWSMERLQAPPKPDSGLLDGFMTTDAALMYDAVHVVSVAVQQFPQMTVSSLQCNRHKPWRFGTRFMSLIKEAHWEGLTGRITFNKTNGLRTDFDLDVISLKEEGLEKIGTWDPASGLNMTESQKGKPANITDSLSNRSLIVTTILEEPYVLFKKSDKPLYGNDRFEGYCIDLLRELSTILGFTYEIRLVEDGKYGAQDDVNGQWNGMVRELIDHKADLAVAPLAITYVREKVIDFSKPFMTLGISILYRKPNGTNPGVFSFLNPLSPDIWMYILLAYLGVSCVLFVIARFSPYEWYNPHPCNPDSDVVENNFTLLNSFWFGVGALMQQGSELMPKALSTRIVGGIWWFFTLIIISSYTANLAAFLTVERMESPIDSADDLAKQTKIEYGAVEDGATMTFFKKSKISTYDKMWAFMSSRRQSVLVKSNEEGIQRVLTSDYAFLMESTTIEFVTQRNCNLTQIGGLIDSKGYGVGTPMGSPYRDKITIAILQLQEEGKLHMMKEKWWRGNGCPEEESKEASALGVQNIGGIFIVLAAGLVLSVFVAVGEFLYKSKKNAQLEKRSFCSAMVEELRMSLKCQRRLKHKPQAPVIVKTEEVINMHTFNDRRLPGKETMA

[3] = molecular target: T1, Glutamate NMDA receptor (Rattus norvegicus) (UniProt P35439+Q00959+Q00960+Q00961+Q62645+Q8VHN2+Q9R1M7); assay: Compound tested for its ability to inhibit [3H]- -L-Glu binding to N-methyl-D-aspartate glutamate receptor at the concentration of 100 uM; format: protein-complex assay
[4] = molecular target: T1, Glutamate NMDA receptor (Rattus norvegicus); assay: Compound tested for its ability to inhibit [3H]- -L-Glu binding to N-methyl-D-aspartate glutamate receptor at the concentration of 20 uM; format: protein-complex assay

Control [2]	Control [3]	Control [4]	Structure (SMILES)	Control [1]
102%	87%	–	O=C(O)[C@H]1CN[C@H](C(=O)O)C1	45%
92%	95%	–	O=C(O)[C@@H]1CN[C@@H](C(=O)O)C1	–

Further lines, the compound ahead of its results:

Structure (SMILES)	Control [2]	Control [3]	Control [4]	Control [1]
CC(C)[C@H]1CN[C@H](C(=O)O)[C@H]1CC(=O)O [DIHYDROKAINATE]	–	–	–	93%
O=C(O)[C@H]1CN[C@@H](C(=O)O)C1	101%	38%	76%	–
O=C(O)[C@@H]1CN[C@H](C(=O)O)C1	100%	89%	–	–
N[C@H](CC(=O)O)C(=O)O [D-ASPARTATE]	–	–	–	58%
